Source: ChEMBL document CHEMBL1201862, “PubChem BioAssay data set” (2004)
Active and inactive are the calls of the source.

Columns and labels:
[1] = molecular target: T1, Short transient receptor potential channel 4 (Mus musculus, UniProt Q9QUQ5); experiment: mouse TRPC4 channel inhibitors, dose response, cell-based, HEK293 TRPC4/mu-opioid, Fluo-4 calcium (AID 434942); type: functional;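 also: potency of inhibitors blocking the TRPC4 calcium response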
T1 sequence (Q9QUQ5 whole entry): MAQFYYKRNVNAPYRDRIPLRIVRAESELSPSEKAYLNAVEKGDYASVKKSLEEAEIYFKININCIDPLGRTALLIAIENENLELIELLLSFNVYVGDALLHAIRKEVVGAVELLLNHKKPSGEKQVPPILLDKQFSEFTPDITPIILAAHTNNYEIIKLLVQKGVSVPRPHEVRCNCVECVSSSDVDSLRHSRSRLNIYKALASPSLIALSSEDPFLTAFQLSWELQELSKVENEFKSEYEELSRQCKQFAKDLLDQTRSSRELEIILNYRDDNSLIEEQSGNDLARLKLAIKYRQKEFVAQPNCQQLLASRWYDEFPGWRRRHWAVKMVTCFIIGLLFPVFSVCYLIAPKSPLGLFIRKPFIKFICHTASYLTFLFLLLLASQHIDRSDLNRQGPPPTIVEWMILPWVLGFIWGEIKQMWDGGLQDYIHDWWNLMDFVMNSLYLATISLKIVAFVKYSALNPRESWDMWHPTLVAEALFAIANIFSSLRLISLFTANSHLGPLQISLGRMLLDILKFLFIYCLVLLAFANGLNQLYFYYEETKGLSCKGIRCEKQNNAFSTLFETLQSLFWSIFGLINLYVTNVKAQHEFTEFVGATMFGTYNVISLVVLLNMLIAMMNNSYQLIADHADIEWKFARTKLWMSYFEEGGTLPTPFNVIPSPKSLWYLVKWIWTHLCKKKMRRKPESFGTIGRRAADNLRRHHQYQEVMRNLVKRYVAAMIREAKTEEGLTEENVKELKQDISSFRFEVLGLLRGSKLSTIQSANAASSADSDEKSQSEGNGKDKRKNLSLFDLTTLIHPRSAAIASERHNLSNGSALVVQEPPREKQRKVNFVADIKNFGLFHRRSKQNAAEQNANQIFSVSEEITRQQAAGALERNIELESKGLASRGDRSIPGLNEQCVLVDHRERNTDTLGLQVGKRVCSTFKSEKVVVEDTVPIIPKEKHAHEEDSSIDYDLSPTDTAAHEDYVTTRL

HEK293 [2] = experiment: cells; type: functional, cell-based; settings: Homo sapiens
HEK293 [3] = experiment: NOD2 signaling inhibitors in MDP-stimulated cells, cell-based, uHTS, luminescence (AID 2001); type: functional; settings: Homo sapiens
[4] = molecular target: Nucleotide-binding oligomerization domain-containing protein 2 (Homo sapiens, UniProt Q9HC29); experiment: NOD2 signaling inhibitors, cell-based, luminescence, uHTS, HEK293 (AID 1566); type: functional
HEK293 [5] = experiment: cells; type: functional, cell-based; settings: Homo sapiens; remark: listed apart in the source
HEK293 [6] = experiment: NOD1 signaling inhibitors, primary screen, cell-based, luminescence, uHTS (AID 1578); type: functional; settings: Homo sapiens
HEK293 [7] = experiment: cells; type: functional, cell-based; settings: Homo sapiens; remark: listed apart in the source
Estrogen receptor = molecular target: T2, Estrogen receptor (Homo sapiens, UniProt P03372);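 also: potency for inhibiting coactivator peptide recruitment to the receptor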
T2 sequence (P03372 whole entry): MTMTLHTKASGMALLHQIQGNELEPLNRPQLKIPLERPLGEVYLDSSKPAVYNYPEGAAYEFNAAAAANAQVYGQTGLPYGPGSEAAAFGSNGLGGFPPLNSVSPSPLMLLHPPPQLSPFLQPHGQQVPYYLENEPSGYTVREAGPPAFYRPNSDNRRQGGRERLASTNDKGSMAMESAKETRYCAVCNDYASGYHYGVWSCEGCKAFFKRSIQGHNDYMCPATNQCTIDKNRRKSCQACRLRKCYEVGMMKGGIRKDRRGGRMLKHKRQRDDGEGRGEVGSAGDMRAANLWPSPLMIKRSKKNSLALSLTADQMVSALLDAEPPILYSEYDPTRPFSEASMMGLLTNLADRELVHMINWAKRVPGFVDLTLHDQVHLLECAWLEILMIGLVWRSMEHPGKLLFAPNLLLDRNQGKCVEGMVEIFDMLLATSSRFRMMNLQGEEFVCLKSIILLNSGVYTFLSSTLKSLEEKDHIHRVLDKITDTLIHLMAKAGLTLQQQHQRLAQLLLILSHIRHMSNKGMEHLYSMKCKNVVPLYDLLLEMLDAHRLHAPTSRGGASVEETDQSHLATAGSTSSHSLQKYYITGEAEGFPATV

[8] = HepG2 cell cytotoxicity, dose response, cytotoxicity control, cherry-picked samples (AID 1159577); type: functional, cell-based
[9] = P. falciparum Dd2 growth inhibitors, dose response, SYBR Green, dry powder samples (AID 1159566); type: functional, cell-based;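 also: potency for growth inhibition with lower SYBR green DNA signal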
[10] = P. falciparum ATP4 D1247Y mutant growth inhibitors, dose response, NITD609-resistant line, SYBR Green, dry powder (AID 1159571); type: functional, cell-based;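 also: parasites synchronized at ring stage by sorbitol before testing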
[11] = P. falciparum 3D7-ScDHODH growth inhibitors, dose response, SYBR Green, dry powder samples (AID 1159570); type: functional, cell-based;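 also: parasite growth measured after 72 hours of compound exposure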
[12] = P. falciparum Dd2 growth inhibitors, dose response, SYBR Green, cherry-picked samples (AID 1159567); type: functional, cell-based
[13] = HepG2 cell cytotoxicity, dose response, cytotoxicity control, plate reader, dry powder samples (AID 1159569); type: functional, cell-based;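 also: inhibitor potency with signal falling toward the positive control level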
[14] = THP-1 cell cytotoxicity, dose response, cytotoxicity control for Vif-APOBEC3G degradation inhibitor project, THP-1 cells (AID 1117359); type: functional; settings: Human immunodeficiency virus 1, THP-1
[15] = molecular target: T3, Rac GTPase-activating protein 1 (Homo sapiens, UniProt Q9H0H5); experiment: MgcRacGAP GTPase-activating activity inhibitors, confirmation, biochemical, ADP Hunter fluorescence, primary and confirmatory (AID 624330); type: functional
T3 sequence (Q9H0H5 whole entry): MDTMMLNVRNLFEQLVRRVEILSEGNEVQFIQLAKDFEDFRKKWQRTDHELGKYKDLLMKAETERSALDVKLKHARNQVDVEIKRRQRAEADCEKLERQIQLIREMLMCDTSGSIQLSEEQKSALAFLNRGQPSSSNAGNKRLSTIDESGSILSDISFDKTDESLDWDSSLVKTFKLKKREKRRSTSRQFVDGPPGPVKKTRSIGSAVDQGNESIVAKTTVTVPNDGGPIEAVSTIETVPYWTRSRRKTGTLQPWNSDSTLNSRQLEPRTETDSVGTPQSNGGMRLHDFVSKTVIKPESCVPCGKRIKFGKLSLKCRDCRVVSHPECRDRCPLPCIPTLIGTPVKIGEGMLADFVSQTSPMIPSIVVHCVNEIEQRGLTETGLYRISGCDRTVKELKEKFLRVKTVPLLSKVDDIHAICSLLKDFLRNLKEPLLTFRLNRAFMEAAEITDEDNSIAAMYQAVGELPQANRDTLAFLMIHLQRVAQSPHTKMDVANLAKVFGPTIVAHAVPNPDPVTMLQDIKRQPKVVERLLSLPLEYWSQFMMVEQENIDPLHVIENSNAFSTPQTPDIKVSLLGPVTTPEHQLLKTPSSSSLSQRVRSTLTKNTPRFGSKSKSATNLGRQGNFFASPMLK

[16] = molecular target: T4, Corticotropin-releasing factor receptor 2/Corticotropin-releasing factor-binding protein (Homo sapiens, UniProt P24387+Q13324); experiment: activators of CRF receptor 2 with binding protein – uHTS hits, confirmation (AID 602473); type: functional; settings: read-out: EC50_Mean
T4 sequence (Q13324 whole entry): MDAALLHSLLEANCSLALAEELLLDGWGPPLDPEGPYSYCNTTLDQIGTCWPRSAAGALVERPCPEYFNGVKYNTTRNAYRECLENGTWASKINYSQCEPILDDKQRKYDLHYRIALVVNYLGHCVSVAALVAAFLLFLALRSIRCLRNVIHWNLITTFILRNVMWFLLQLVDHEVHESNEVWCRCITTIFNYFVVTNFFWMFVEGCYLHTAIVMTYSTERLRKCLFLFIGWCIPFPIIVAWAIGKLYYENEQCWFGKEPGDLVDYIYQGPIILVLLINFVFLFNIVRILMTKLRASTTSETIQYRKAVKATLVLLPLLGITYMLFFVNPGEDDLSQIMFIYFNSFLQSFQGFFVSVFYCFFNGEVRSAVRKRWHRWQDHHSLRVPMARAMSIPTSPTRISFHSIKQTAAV
T4 sequence (P24387 whole entry): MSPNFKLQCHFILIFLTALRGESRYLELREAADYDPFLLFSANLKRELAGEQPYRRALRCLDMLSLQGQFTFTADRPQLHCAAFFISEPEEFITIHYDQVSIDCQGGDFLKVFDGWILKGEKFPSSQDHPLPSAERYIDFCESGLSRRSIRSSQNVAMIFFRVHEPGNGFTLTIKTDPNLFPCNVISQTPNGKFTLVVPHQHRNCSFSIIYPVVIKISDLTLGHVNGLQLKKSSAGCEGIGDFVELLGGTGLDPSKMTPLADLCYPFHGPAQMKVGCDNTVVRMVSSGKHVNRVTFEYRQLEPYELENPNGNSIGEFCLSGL

[17] = molecular target: T4, Corticotropin-releasing factor receptor 2/Corticotropin-releasing factor-binding protein; experiment: Dose Response confirmation of uHTS hits for small molecule antagonists of the CRF-binding protein and CRF-R2 receptor complex.; type: functional; settings: read-out: IC50_Mean
[18] = inhibitors of intracellular T. cruzi replication, confirmation, NIH3T3 host cells, beta-gal luminescence (AID 2044); type: functional, cell-based;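 also: intracellular parasites grown in NIH/3T3 mouse fibroblasts as host cells; luminescent beta-galactosidase reporter signal from transgenic T. cruzi replicating inside host cells; inhibitors lower the luminescence signal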
[19] = cytotoxicity toward NIH3T3 fibroblasts, dose response, counter-screen, cell-based, ATP luminescence, mouse fibroblasts (AID 2010); type: functional;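 also: cells exposed to compound for about 90 hours before reading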
[20] = ZM109 Env clade C HIV-1 fusion inhibitors, dose response, HeLa effector, CEM target cells, luciferase, cherry-pick (AID 652058); type: functional, cell-based
[21] = inhibitors of clade B AD8 Env fusion, dose response, cell-based, cherry-pick (AID 652062); type: functional;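 also: luciferase signal from cell-cell fusion driven by HIV-1 clade B AD8 Env; potency is for inhibitors of fusion seen as a drop in luminescence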
[22] = inhibitors of HIV Env-driven cell fusion, dose response, cherry-pick (AID 652057); type: functional, cell-based
Paired box protein Pax-8 = Paired box protein Pax-8 (Homo sapiens, UniProt Q06710); experiment: inhibitors of PAX8-driven TPO luciferase reporter, dose response, RMG-I cells, cherry-pick (AID 687027); type: functional, cell-based;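 also: luciferase reporter driven by Pax8 target thyroperoxidase promoter measured by SteadyGlo luminescence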
Chain of Paired box protein Pax-8 (Q06710 whole entry): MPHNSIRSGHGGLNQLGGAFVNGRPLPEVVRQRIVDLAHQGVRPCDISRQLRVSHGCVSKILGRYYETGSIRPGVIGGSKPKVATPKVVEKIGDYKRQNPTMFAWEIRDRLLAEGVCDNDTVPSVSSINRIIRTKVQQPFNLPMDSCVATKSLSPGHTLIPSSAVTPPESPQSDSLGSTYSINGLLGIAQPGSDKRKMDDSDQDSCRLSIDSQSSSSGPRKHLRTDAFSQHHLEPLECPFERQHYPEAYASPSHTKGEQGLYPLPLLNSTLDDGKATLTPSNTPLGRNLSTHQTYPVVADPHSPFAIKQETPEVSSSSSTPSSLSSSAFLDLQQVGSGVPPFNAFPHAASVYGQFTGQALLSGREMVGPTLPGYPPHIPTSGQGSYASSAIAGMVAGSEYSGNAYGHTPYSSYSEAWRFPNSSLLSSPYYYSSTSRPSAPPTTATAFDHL

Chain of Nucleotide-binding oligomerization domain-containing protein 2 (Q9HC29 whole entry, the tested form may be a part): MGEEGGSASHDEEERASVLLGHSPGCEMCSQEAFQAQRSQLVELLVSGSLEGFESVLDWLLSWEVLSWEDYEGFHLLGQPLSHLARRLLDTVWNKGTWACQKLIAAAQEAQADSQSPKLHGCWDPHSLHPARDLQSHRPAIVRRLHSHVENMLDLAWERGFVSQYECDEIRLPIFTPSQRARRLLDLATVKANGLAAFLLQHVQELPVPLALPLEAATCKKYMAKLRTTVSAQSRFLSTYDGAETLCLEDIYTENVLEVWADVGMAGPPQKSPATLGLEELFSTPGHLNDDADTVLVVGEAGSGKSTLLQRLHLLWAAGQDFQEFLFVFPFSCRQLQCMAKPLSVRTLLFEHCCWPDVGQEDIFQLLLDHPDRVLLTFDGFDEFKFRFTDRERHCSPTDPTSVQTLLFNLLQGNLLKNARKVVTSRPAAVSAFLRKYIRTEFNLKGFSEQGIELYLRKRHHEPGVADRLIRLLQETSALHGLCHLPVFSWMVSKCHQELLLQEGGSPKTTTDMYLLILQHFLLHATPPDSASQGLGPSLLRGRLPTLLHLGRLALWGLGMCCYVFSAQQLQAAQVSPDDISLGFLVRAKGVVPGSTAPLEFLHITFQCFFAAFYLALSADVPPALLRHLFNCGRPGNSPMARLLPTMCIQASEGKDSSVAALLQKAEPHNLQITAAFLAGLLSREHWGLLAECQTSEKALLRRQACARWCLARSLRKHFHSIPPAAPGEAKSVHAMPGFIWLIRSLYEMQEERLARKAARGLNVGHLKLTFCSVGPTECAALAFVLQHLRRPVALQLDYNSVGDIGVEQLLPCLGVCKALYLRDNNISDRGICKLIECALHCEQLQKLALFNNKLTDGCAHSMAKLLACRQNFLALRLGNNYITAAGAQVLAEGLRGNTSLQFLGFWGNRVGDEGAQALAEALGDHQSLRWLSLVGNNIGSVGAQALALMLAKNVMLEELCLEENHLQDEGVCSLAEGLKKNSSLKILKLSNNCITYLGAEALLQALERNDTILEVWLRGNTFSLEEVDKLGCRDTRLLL

c1ccc2[nH]c(CCCCc3nc4ccccc4[nH]3)nc2c1
EC50 [1]: 2.37 µM (active)

Cc1cc(C)cc(OCC(=O)Nc2nc3ccc([N+](=O)[O-])cc3s2)c1
IC50 (HEK293 [2]): > 20 µM (inactive)
IC50 (HEK293 [3]): 8.1 µM (active)
EC50 [4]: 7.65 µM (active)
IC50 (HEK293 [5]): 1.83 µM (active)
EC50 (HEK293 [6]): 4.56 µM (active)
IC50 (HEK293 [7]): > 20 µM (inactive)

COc1ccc(-n2nc(C(=O)Nc3ccc(OC)c(OC)c3)c3c4ccccc4n(C)c3c2=O)cc1
IC50 (Estrogen receptor): > 50 µM (not active)

Cc1cccc(CCN(C(=O)c2snc(C(N)=O)c2N)C(C(=O)NCC2CCCO2)c2ccc(F)cc2)c1 (stereo unspecified)
EC50 [1]: 2.66 µM (active)

COc1ccccc1CN1C[C@@H]2N[C@H](C1)[C@@H]2c1ccc(-c2ccc(C#N)cc2)cc1
AC50 [8]: 13.7 µM (active)
AC50 [9]: 1.68 µM (active)
AC50 [10]: 2.8 µM (active)
AC50 [11]: 2.39 µM (active)
AC50 [12]: 2.36 µM (active)
AC50 [13]: 7.43 µM (active)

CC1CCc2sc3ncnc(N4CCOCC4)c3c2C1 (stereo unspecified)
IC50 (HEK293 [2]): > 20 µM (inactive)
IC50 (HEK293 [3]): 4.85 µM (active)
EC50 [4]: 8.76 µM (active)
IC50 (HEK293 [5]): 3.54 µM (active)
EC50 (HEK293 [6]): 6.02 µM (active)
IC50 (HEK293 [7]): > 20 µM (inactive)

COc1ccc(C)cc1NC(=O)CSc1ccc(-c2sc(C)nc2C)nn1
IC50 (HEK293 [2]): > 20 µM (inactive)
IC50 (HEK293 [3]): 10.7 µM (inactive)
EC50 [4]: 4.63 µM (active)
IC50 (HEK293 [5]): 14.1 µM (active)
EC50 (HEK293 [6]): 9.47 µM (active)
IC50 (HEK293 [7]): > 20 µM (inactive)

C=CCc1ccc(OCCOCCNCCCC)c(OC)c1
CC50 [14]: > 40 µM (active)
IC50 [15]: 132 µM (active)

N#Cc1ccc(-c2ccc([C@H]3[C@@H]4CN(C(=O)C5CCCCC5)C[C@H]3N4)cc2)cc1
AC50 [8]: 24.1 µM (active)
AC50 [9]: 3.47 µM (active)
AC50 [10]: 4.16 µM (active)
AC50 [11]: 3.78 µM (active)
AC50 [12]: 2.2 µM (active)
AC50 [13]: 42.9 µM (active)

CCOC(=O)c1c(C)[nH]c(C(=O)OCC(=O)Nc2sc(C(=O)N(C)C)c(C)c2C(=O)OCC)c1C
CC50 [14]: > 40 µM (active)
EC50 [16]: > 53 µM (inactive)
IC50 [17]: > 47.1 µM (inactive)
EC50 [18]: 0.36 µM (active)
EC50 [19]: > 60 µM (not active)

CS(=O)(=O)N(CC(=O)NCc1ccco1)c1ccc2c(c1)OCO2
IC50 (Estrogen receptor): 40.1 µM (not active)

C[C@H](CO)N1C[C@H](C)[C@@H](CN(C)C(=O)Nc2ccc(F)cc2)OCc2ccccc2-c2c(n(C)c3ccccc23)C1=O
AC50 [9]: 0.348 µM (active)
AC50 [20]: < 0.26 µM (active)
AC50 [21]: < 0.26 µM (active)
AC50 [10]: 0.397 µM (active)
AC50 [11]: 0.662 µM (active)
AC50 [22]: < 0.26 µM (active)
AC50 (Paired box protein Pax-8): 24.6 µM (active)
AC50 [12]: 0.907 µM (active)
AC50 [13]: 46.8 µM (active)

CC(OC(=O)c1cccc(O)c1)C(=O)N(C)Cc1ccccc1 (stereo unspecified)
CC50 [14]: > 40 µM (active)

O=c1[nH]c2cc3c(cc2cc1CN(Cc1cccs1)Cc1nnnn1Cc1ccco1)OCCO3
IC50 (Estrogen receptor): > 50 µM (not active)

Clc1ccc(Nc2nc(-c3ccncc3)cs2)cc1
IC50 (Estrogen receptor): 18.2 µM (active)
EC50 [18]: 0.329 µM (active)
EC50 [19]: 4 µM (active)

CCOc1cc(/C=C2\C(=N)N3N=CSC3=NC2=O)ccc1OS(=O)(=O)c1ccccc1
EC50 [1]: 4.73 µM (active)
